Measured values: PMC10089987, “The lipoxygenase OsLOX10 affects seed longevity and resistance to saline-alkaline stress during rice seedlings” (Plant Molecular Biology, 2023)

Target: T1, LOX10 (OsLOX10) (Oryza sativa, UniProt B7EMC8)
T1 construct: full-length CDS (2607 bp, 868 aa) in pET28a(+), His tag, E. coli BL21(DE3) lysate supernatant, about 98 kDa plus tag (band at 100 kDa)
Test: KI-I2 starch staining (colour)
Type: biochemical
Details: E. coli lysate supernatant with recombinant LOX10, 0.5 µg protein/µl and dilutions; controls pET28a(+) supernatant and PBS

T1 sequence (B7EMC8 1-868): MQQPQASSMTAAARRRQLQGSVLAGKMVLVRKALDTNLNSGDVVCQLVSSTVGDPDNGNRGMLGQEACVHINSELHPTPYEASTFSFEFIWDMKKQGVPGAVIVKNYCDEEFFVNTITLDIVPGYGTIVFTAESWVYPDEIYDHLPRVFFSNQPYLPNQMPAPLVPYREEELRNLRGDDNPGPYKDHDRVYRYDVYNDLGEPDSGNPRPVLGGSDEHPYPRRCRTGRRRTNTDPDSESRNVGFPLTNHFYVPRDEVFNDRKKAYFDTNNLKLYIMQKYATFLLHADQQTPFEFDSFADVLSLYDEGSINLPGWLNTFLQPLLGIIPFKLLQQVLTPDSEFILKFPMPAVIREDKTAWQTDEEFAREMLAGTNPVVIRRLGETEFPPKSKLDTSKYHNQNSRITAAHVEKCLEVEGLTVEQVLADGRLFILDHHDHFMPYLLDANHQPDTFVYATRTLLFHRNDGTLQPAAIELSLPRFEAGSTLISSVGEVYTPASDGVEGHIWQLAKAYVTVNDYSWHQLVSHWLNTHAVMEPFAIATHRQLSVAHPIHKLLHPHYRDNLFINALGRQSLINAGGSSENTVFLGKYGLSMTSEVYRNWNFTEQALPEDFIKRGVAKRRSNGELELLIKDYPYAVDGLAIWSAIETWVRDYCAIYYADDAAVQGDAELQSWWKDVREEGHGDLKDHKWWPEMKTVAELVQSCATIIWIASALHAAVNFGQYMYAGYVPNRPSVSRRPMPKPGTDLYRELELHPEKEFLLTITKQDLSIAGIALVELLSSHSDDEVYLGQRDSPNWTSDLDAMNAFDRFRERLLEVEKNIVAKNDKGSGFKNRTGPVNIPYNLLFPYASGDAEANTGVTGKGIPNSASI

Compound: CCCCC/C=C\C/C=C\CCCCCCCC(=O)O [LA, linoleic acid]
- KI-I2 starch staining (colour): The KI-I2 staining showed that LOX10 could metabolize the substrate LA to produce starch
